Measured values as given in patent US20240408086A1, “USE OF LUVADAXISTAT FOR THE TREATMENT OF COGNITIVE IMPAIRMENT” (TAKEDA PHARMACEUTICAL COMPANY LIMITED, priority 2021, published 2024).
Like-named read-outs stand apart in the source and are kept apart here.

Key:
[1] = test system: D-serine in cerebellum; assay: D-serine increase in cerebellum (6 hours); assay type: in vivo; design: key: a + sign means efficacious; a − sign means not efficacious; settings: Mouse
Excerpt: DAAO inhibition increases levels of D-serine, a co-agonist of the N-methyl-d-aspartate (NMDA) receptor. […] Increases in cerebellum D-serine levels may also influence distal regions of the brain (such as the hippocampus) or cortical regions, through a mechanism that remains to be elucidated. […] In Table 1, a + sign means efficacious, a − sign means not efficacious, and an empty cell indicates a dose was not tested.

[2] = test system: Mouse; assay: Poly I:C social interaction (acute); assay type: in vivo; design: key: a + sign means efficacious; a − sign means not efficacious; settings: Single Dose
Excerpt: (§1) In Table 1, a + sign means efficacious, a − sign means not efficacious, and an empty cell indicates a dose was not tested.

[3] = test system: adult patients with persistent negative symptoms of schizophrenia; assay type: in vivo, human; settings: for SCoRS Interviewer Total Score, Difference from Placebo for Week 12, LS Mean (SE) / SCoRS Interviewer Total Score, Adjusted Change from Baseline to Week 12, LS Mean (SE): MMRM; for SCoRS Interviewer Total Score, Difference from Placebo for Week 12, LS Mean (SE) / SCoRS Interviewer Total Score, Adjusted Change from Baseline to Week 12, LS Mean (SE) / SCoRS Interviewer Total Score, Change from Baseline to Week 12, Mean (SD) / SCoRS Interviewer Total Score, Change from Baseline to Week 12, Median / SCoRS Interviewer Total Score, Week 12, Mean (SD) / SCoRS Interviewer Total Score, Week 12, Median: preliminary analysis
Excerpt: To assess changes in cognitive impairment associated with schizophrenia (CIAS), secondary endpoints included the 12-week change from baseline in the Brief Assessment of Cognition in Schizophrenia (BACS) composite score, a measure of cognition across multiple domains, and the Schizophrenia Cognition Rating Scale (SCORS) score, a measure of day-to-day cognitive functioning requiring input from an adult informant. Secondary endpoints were not corrected for multiplicity.
The SCORS is an interview-based measure of cognitive functioning that was developed to specifically assess aspects of cognitive functioning in participants with schizophrenia. The items assess the 7 cognitive domains of attention, memory, reasoning and problem solving, working memory, processing speed, language functions, and social cognition. The SCORS global total scores is the sum of the 20 items, and it varies from 20 to 80 with 20 being the best outcome and 80 being the worst.

[4] = test system: Rat; assay: Attention set-shifting task (ASST) (executive function); assay type: in vivo; design: key: a + sign means efficacious; a − sign means not efficacious; settings: for Attention set-shifting task (ASST) (executive function): 14-Day Once Daily (QD); for ASST (executive function): Single Dose
Excerpt: as §1

[5] = test system: mouse hippocampus; assay: Hippocampal long-term potentiation (LTP) after acute and sub-chronic oral dosing; assay type: in vivo, mice
Description: In this study, hippocampal synaptic plasticity was evaluated using a well-established long-term potentiation (LTP) paradigm after acute and sub-chronic (14 days) dosing with Compound (I).
Wild-type mice aged 5-6 weeks (total of 97; n=5-8 per condition) were given acute or sub-chronic (14-day) oral doses of Compound (I) (from 0.001 mg/kg to 10 mg/kg, p.o.) or vehicle (1% Tween 80 in 0.5% methylcellulose). Hippocampal slices were harvested after 5 hours. Cerebellum and blood plasma were also obtained to measure D-serine levels achieved in the experimental animals.
Electrophysiological recordings were obtained from a single hippocampal slice placed on the chamber and perfused with aCSF at a constant rate. Extracellular field excitatory postsynaptic potentials (fEPSPs) were recorded in the CA1 stratum radiatum using a glass micropipette filled with aCSF. fEPSPs were evoked by electrical stimulation of Schaffer collaterals/commissural pathway at 0.1 Hz with a glass stimulating electrode placed in the stratum radiatum.
To test the effect of Compound (I) on basal synaptic transmission, Input/Output […] curves were constructed at the beginning of the experiment. The slope of fEPSPs was measured and plotted against different intensities of stimulation (from 0 to 100 μA). Long-term potentiation (LTP) was induced by a theta burst stimulation protocol (10 bursts of 4 pulses at 100 Hz, with 200 ms between bursts) at baseline stimulation intensity. Following this conditioning stimulus, a 1-hour test period was recorded where responses were again elicited by a single stimulation every 10 seconds (0.1 Hz) at the same stimulus intensity.

[6] = test system: patients with schizophrenia; assay: Phase 1b crossover study: mismatch negativity (MMN) amplitude; assay type: in vivo, human
Excerpt: NCT03359785 was a randomized, double-blind, placebo-controlled cross-over Phase 1b clinical trial in schizophrenia patients at a single site to evaluate PD effects, safety, tolerability, and pharmacokinetics of multiple oral doses of Compound (I). The objective of the study was to assess pharmacodynamic (PD) biomarkers of Compound (I) on measures related to cerebellar circuitry function and NMDA pharmacology that are known to be affected in schizophrenia.
Evoked potentials in the electroencephalogram were also tested to assess the impact of multiple oral doses of Compound (I) on NMDA-sensitive physiological responses that are affected in schizophrenia. Specifically, mismatch negativity (MMN), auditory steady state response (ASSR), and P300 were measured at baseline and following 8 days of treatment in both periods.
MMN is an oddball event-related potential sensitive to NMDA-receptor pharmacology. MMN is an event related potential (ERP) evoked in response to unattended changes in background stimulation and is responsive to D-serine elevations. There is evidence of D-serine administration improving MMN in patients with schizophrenia. MMN reflects an automatic process of detecting a mismatch between a deviant stimulus and a sensory-memory trace (FIGS. 11A, 11B). Smaller amplitudes of MMN have been consistently identified in schizophrenia participants, with a large effect size compared with healthy controls. In this study, MMN amplitude was measured at Midline frontal electrode (Fz) of electroencephalogram [EEG].
All endpoints were analyzed as change from baseline compared to placebo within the same subjects. Statistical comparisons were conducted with an ANOVA model, with treatment sequence, period, and treatment as fixed effects, and subject as a random effect. As a supplementary analysis, an analysis of covariance model (ANCOVA) was applied to the primary endpoint with (period) baseline as a covariate, treatment sequence, period, treatment effect and baseline-by-treatment as fixed effects, and subject as a random effect.

## O=c1[nH]nc(CCc2ccc(C(F)(F)F)cc2)cc1O [Compound (I), luvadaxistat]
[1]; 14-Day Once Daily (QD), 0.03 mg/kg
  D-serine increase in cerebellum (6 hours): −
[1]; 14-Day Once Daily (QD), 0.1 mg/kg
  D-serine increase in cerebellum (6 hours): −
[1]; 14-Day Once Daily (QD), 0.3 mg/kg
  D-serine increase in cerebellum (6 hours): +
[1]; 14-Day Once Daily (QD), 1 mg/kg
  D-serine increase in cerebellum (6 hours): +
[1]; 14-Day Once Daily (QD), 3 mg/kg
  D-serine increase in cerebellum (6 hours): +
[1]; Single Dose, 0.3 mg/kg
  D-serine increase in cerebellum (6 hours): +
[1]; Single Dose, 1 mg/kg
  D-serine increase in cerebellum (6 hours): +
[1]; Single Dose, 3 mg/kg
  D-serine increase in cerebellum (6 hours): +
[1]; Single Dose, 10 mg/kg
  D-serine increase in cerebellum (6 hours): +
[2]; 0.3 mg/kg
  Poly I:C social interaction (acute): −
[2]; 1 mg/kg
  Poly I:C social interaction (acute): −
[2]; 3 mg/kg
  Poly I:C social interaction (acute): +
[3]; 50 mg once daily, 12 weeks, p=0.011, not corrected for multiplicity
  SCoRS interviewer total score, effect size versus placebo: 0.4
[3]; 50 mg once daily, one-sided unadjusted p 0.007*
  SCoRS Interviewer Total Score, Difference from Placebo for Week 12, LS Mean (SE): −2.4 (0.94)
[3]; 50 mg once daily
  SCoRS Interviewer Total Score, Adjusted Change from Baseline to Week 12, LS Mean (SE): −3.7 (0.77)
  SCoRS Interviewer Total Score, Change from Baseline to Week 12, Mean (SD): −4.0 (5.93)
  SCoRS Interviewer Total Score, Change from Baseline to Week 12, Median: −3.0
  SCoRS Interviewer Total Score, Week 12, Mean (SD): 35.5 (10.91)
  SCoRS Interviewer Total Score, Week 12, Median: 32.0
[3]; 50 mg once daily, placebo −1.6
  SCoRS interviewer total score, 12-week LS mean change from baseline: −3.8
[3]; 125 mg once daily, one-sided unadjusted p 0.236
  SCoRS Interviewer Total Score, Difference from Placebo for Week 12, LS Mean (SE): −0.7 (0.96)
[3]; 125 mg once daily
  SCoRS Interviewer Total Score, Adjusted Change from Baseline to Week 12, LS Mean (SE): −2.1 (0.77)
  SCoRS Interviewer Total Score, Change from Baseline to Week 12, Mean (SD): −2.1 (5.89)
  SCoRS Interviewer Total Score, Change from Baseline to Week 12, Median: −2.0
  SCoRS Interviewer Total Score, Week 12, Mean (SD): 36.1 (9.69)
  SCoRS Interviewer Total Score, Week 12, Median: 36.5
[3]; 500 mg once daily, one-sided unadjusted p 0.449
  SCoRS Interviewer Total Score, Difference from Placebo for Week 12, LS Mean (SE): −0.1 (0.98)
[3]; 500 mg once daily
  SCoRS Interviewer Total Score, Adjusted Change from Baseline to Week 12, LS Mean (SE): −1.5 (0.84)
  SCoRS Interviewer Total Score, Change from Baseline to Week 12, Mean (SD): −2.4 (5.34)
  SCoRS Interviewer Total Score, Change from Baseline to Week 12, Median: −2.0
  SCoRS Interviewer Total Score, Week 12, Mean (SD): 39.4 (9.60)
  SCoRS Interviewer Total Score, Week 12, Median: 39.0
[4]; 0.1 mg/kg
  Attention set-shifting task (ASST) (executive function): +
[4]; 1 mg/kg
  Attention set-shifting task (ASST) (executive function): +
[4]; 10 mg/kg
  Attention set-shifting task (ASST) (executive function): +
  ASST (executive function): +
[4]; 3 mg/kg
  ASST (executive function): +
[4]; 30 mg/kg
  ASST (executive function): +
[5]; single oral doses vs vehicle, one-way ANOVA
  LTP in the mouse hippocampus: did not significantly affect LTP
[5]; sub-chronic (14-day) oral dose 0.001 mg/kg, p<0.05 vs vehicle
  LTP in the mouse hippocampus: increased LTP
[5]; sub-chronic (14-day) oral dose 0.01 mg/kg, p<0.05 vs vehicle
  LTP in the mouse hippocampus: increased LTP
[5]; sub-chronic (14-day) oral dose 0.1 mg/kg, p<0.05 vs vehicle
  LTP in the mouse hippocampus: decreased LTP
[5]; sub-chronic (14-day) oral dose 10 mg/kg, p<0.05 vs vehicle
  LTP in the mouse hippocampus: decreased LTP
[6]; 50 mg for 8 days
  MMN amplitude, effect size vs placebo: −0.691
[6]; 50 mg for 8 days, placebo 0.669, p=0.0497
  MMN amplitude, LS means change from baseline: −0.239
[6]; 500 mg for 8 days
  MMN amplitude, effect size vs placebo: 0.389
[6]; 500 mg for 8 days, placebo −0.154, p=0.8517
  MMN amplitude, LS means change from baseline: 0.594
